Our source for the TGI and GI50 values is PubChem BioAssay (NCI).

Each structure is given as a SMILES string.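 1) Cells in 96-well plates. 2) Compound, 48 h, 5 concentrations. 3) Linear interpolation between surrounding doses. 4) Unreached endpoint = highest concentration. Abbreviation: GI50, concentration required for 50% inhibition of growth. TGI is the concentration that stops growth completely.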 Some results are limits rather than exact numbers.

The first assay relates to OVCAR-8 ovarian. Description: NCI anticancer screen, dose series, 48 h.
Molecule `O=S1(=O)c2cnccc2NC(=NCc2ccccc2)N1c1ccccc1` had a TGI of more than 100 µM.
For the molecule `Cc1ccc2oc(=O)c(-c3ccccc3)nc2c1`, the TGI was more than 100 µM.
As to `O=C(O)/C=C\C(=O)Nc1ccc(S(=O)(=O)c2ccc(NC(=O)/C=C\C(=O)O)cc2)cc1`, the TGI was more than 100 µM.
With `COc1ccc(-n2nc(C)c3c(Nc4ccc(NC(=O)Nc5ccc(Cl)c(C(F)(F)F)c5)cc4)ncnc32)cc1`, the GI50 was 2.84 µM and the TGI came to 11.7 µM.
Regarding `O=[N+]([O-])/C(Cl)=C(\NCCN/C(C(Cl)=C(Cl)Cl)=C(/Cl)[N+](=O)[O-])C(Cl)=C(Cl)Cl`, the TGI is more than 100 µM.
On to `S=C1NC2=C(CSC/C2=C\c2ccccc2)C(c2ccccc2)N1` (stereo not drawn), for which the TGI is more than 100 µM.
Consider `COc1ccc(/C=N/n2c(C)nc3c(sc(=S)n3-c3ccccc3)c2=O)cc1`, for which the TGI was more than 100 µM.
With `CCN1C(=O)C(=C/C=C/c2ccc(N(CC)CC)cc2)C(=O)N(CC)C1=S`, the TGI is more than 100 µM.
The same measure, in the same setting: in the case of `CSc1nc2c(ncn2C2OC(CO)C(O)C(O)C2O)c(=O)[nH]1` (stereo not drawn) it was more than 100 µM; in that of `Nc1ccccc1C(=O)C(Br)C(Br)c1ccc2c(c1)OCO2` (stereo not drawn), 91.5 µM; in that of `C/C(=C\CO)CC/C=C(\C)CNc1ccc([N+](=O)[O-])cc1`, more than 100 µM.
The molecule `CCCCCCCCCCCC1CC(=O)NCCCN(C)CCCCN(C)CCCN1C` (stereo not drawn) displayed a TGI of 3.33 µM.
For the molecule `COc1cc(C2c3cc4c(cc3[C@@H](Nc3ccc5c(c3)OCO5)C3COC(=O)[C@H]23)OCO4)cc(OC)c1O` (stereo partly drawn), the TGI was more than 20.5 µM.
Take `CCN(CCCl)c1cc(CN(C)C)cc(NC(=O)c2ccc(C(=O)Nc3cccc(CN(C)C)c3)cc2)c1`: the TGI turned out to be 12.8 µM.

Another assay relates to SK-MEL-5 melanoma. Description: NCI anticancer screen, dose series, 48 h.
`CCOP(=O)(OCC)OC1CC(n2cc(C)c(=O)n(C)c2=O)OC1CO[Si](C)(C)C(C)(C)C` (stereo not drawn) displayed a TGI of more than 100 µM.
Same read-out and setting: in the case of `N#C/C(=C1\SC(N=Nc2ccc(Cl)cc2)C(=O)N1c1ccccc1)c1nc2ccccc2[nH]1` (stereo not drawn) it was more than 100 µM.
The same measure, in the same setting: in the case of `O=C(NN1C(=O)CSC1c1cccc(F)c1)c1ccncc1` (stereo not drawn) it was more than 100 µM.
In turn, `COc1cccc2c1OCC1Cc3ccccc3OC21` (stereo not drawn) showed a TGI of 30.8 µM.
As to `CC(C)C(N)C(=O)NC(CCC(=O)NCCCCC(N)C(=O)NCCCNc1ccc([N+](=O)[O-])c2[nH]c3ccccc3c(=O)c12)C(N)=O` (stereo not drawn), the TGI was more than 100 µM.
For `Cc1cccc(/C(Br)=C2/OC(=O)c3ccccc32)c1`, the TGI is more than 100 µM.
Same read-out and setting: in the case of `CC#CC(O)(C(=O)OC1CC(C)N(C)C(C)(C)C1)C1CCCC1` (stereo not drawn) it was more than 100 µM; in that of `Nc1ccc(-c2nn3c(COc4ccc(Cl)cc4)nnc3s2)cc1`, more than 100 µM; in that of `C(=C\c1ccccc1)/COc1ccccc1C(N1CCOCC1)n1nc2ccccc2n1` (stereo not drawn), 13.8 µM.
Take `c1ccc2[nH]c(CNc3ccc(C4C[Se]N=N4)cc3)nc2c1` (stereo not drawn): the TGI stood at 46.4 µM.
`COc1cc(/C=C2\CCC(C)/C(=C\c3cc(OC)c(OC)c(OC)c3)C2=O)cc(OC)c1OC` (stereo not drawn) showed a TGI of 5.7 µM.
In turn, `COC(=O)[C@H](Cc1ccccc1)NC(=O)N(CCC#N)CCN(C(=O)N[C@@H](Cc1ccccc1)C(=O)OC)c1ccccc1` returned a TGI of 46.2 µM.
Molecule `C[C@H]1OC(=O)[C@@H]2N=NN(Cc3ccccc3)[C@H]12` displayed a TGI of more than 100 µM.
Still for that read-out and setting: in the case of `CN1N=C(c2ccncc2)OC1c1ccccc1F` (stereo not drawn) it was more than 100 µM; in that of `O=C(/C=C/c1ccc2c(c1)OCO2)Cc1nc2ccccc2[nH]c1=O`, more than 100 µM.
`O=S1(=O)c2cnccc2NC(=NCc2ccccc2)N1c1ccccc1` registered a TGI of more than 100 µM.
`Cc1ccc2oc(=O)c(-c3ccccc3)nc2c1` had a TGI of more than 100 µM.
`O=C(O)/C=C\C(=O)Nc1ccc(S(=O)(=O)c2ccc(NC(=O)/C=C\C(=O)O)cc2)cc1` showed a TGI of more than 100 µM.
On to `COc1ccc(-n2nc(C)c3c(Nc4ccc(NC(=O)Nc5ccc(Cl)c(C(F)(F)F)c5)cc4)ncnc32)cc1`, for which the GI50 is 1.72 µM and the TGI was found to be 3.23 µM.
Molecule `S=C1NC2=C(CSC/C2=C\c2ccccc2)C(c2ccccc2)N1` (stereo not drawn) had a TGI of 24.5 µM.
`COc1ccc(/C=N/n2c(C)nc3c(sc(=S)n3-c3ccccc3)c2=O)cc1` registered a TGI of more than 100 µM.
Consider `CCN1C(=O)C(=C/C=C/c2ccc(N(CC)CC)cc2)C(=O)N(CC)C1=S`, for which the TGI was more than 100 µM.
The molecule `CSc1nc2c(ncn2C2OC(CO)C(O)C(O)C2O)c(=O)[nH]1` (stereo not drawn) displayed a TGI of more than 100 µM.
With `C/C(=C\CO)CC/C=C(\C)CNc1ccc([N+](=O)[O-])cc1`, the TGI came to 25.6 µM.
Regarding `CCCCCCCCCCCC1CC(=O)NCCCN(C)CCCCN(C)CCCN1C` (stereo not drawn), the TGI turned out to be 3.43 µM.
In the case of `CC(=O)Oc1c(C)c(C)c2c(c1C)CCC(C)(CC(=O)OCCCCCCCCCCC[P+](c1ccccc1)(c1ccccc1)c1ccccc1)O2` (stereo not drawn), the GI50 was 0.191 µM and the TGI is 0.359 µM.
`COc1cc(C2c3cc4c(cc3[C@@H](Nc3ccc5c(c3)OCO5)C3COC(=O)[C@H]23)OCO4)cc(OC)c1O` (stereo partly drawn) had a TGI of 2.64 µM.

Another assay relates to SN12C renal. Kind of assay: NCI anticancer screen, dose series, 48 h.
As to `CCOP(=O)(OCC)OC1CC(n2cc(C)c(=O)n(C)c2=O)OC1CO[Si](C)(C)C(C)(C)C` (stereo not drawn), the TGI was more than 100 µM.
Still for that read-out and setting: in the case of `N#C/C(=C1\SC(N=Nc2ccc(Cl)cc2)C(=O)N1c1ccccc1)c1nc2ccccc2[nH]1` (stereo not drawn) it was more than 100 µM.
Regarding `O=C(NN1C(=O)CSC1c1cccc(F)c1)c1ccncc1` (stereo not drawn), the TGI is more than 100 µM.
On to `COc1cccc2c1OCC1Cc3ccccc3OC21` (stereo not drawn), for which the TGI turned out to be 70.1 µM.
`Cc1cccc(/C(Br)=C2/OC(=O)c3ccccc32)c1` yielded a TGI of more than 100 µM.
On to `CC#CC(O)(C(=O)OC1CC(C)N(C)C(C)(C)C1)C1CCCC1` (stereo not drawn), for which the TGI is more than 100 µM.
On to `Nc1ccc(-c2nn3c(COc4ccc(Cl)cc4)nnc3s2)cc1`, for which the TGI was more than 100 µM.
`C(=C\c1ccccc1)/COc1ccccc1C(N1CCOCC1)n1nc2ccccc2n1` (stereo not drawn): the TGI turned out to be 24.1 µM.
Take `c1ccc2[nH]c(CNc3ccc(C4C[Se]N=N4)cc3)nc2c1` (stereo not drawn): the TGI was more than 100 µM.
`COc1cc(/C=C2\CCC(C)/C(=C\c3cc(OC)c(OC)c(OC)c3)C2=O)cc(OC)c1OC` (stereo not drawn) gave a TGI of 19.2 µM.
Molecule `COC(=O)[C@H](Cc1ccccc1)NC(=O)N(CCC#N)CCN(C(=O)N[C@@H](Cc1ccccc1)C(=O)OC)c1ccccc1` registered a TGI of 89 µM.
The same measure, in the same setting: in the case of `C[C@H]1OC(=O)[C@@H]2N=NN(Cc3ccccc3)[C@H]12` it was more than 100 µM; in that of `CN1N=C(c2ccncc2)OC1c1ccccc1F` (stereo not drawn), more than 100 µM.
Same read-out and setting: in the case of `O=C(/C=C/c1ccc2c(c1)OCO2)Cc1nc2ccccc2[nH]c1=O` it was 60.2 µM.
For the molecule `O=S1(=O)c2cnccc2NC(=NCc2ccccc2)N1c1ccccc1`, the TGI is more than 100 µM.
In turn, `Cc1ccc2oc(=O)c(-c3ccccc3)nc2c1` returned a TGI of more than 100 µM.
Same read-out and setting: in the case of `O=C(O)/C=C\C(=O)Nc1ccc(S(=O)(=O)c2ccc(NC(=O)/C=C\C(=O)O)cc2)cc1` it was more than 100 µM.
Consider `COc1ccc(-n2nc(C)c3c(Nc4ccc(NC(=O)Nc5ccc(Cl)c(C(F)(F)F)c5)cc4)ncnc32)cc1`, for which the GI50 was 2.63 µM and the TGI came to 9.37 µM.
